Source: article PMC7339578, “Multiple circulating alkaloids and saponins from intravenous Kang-Ai injection inhibit human cytochrome P450 and UDP-glucuronosyltransferase isozymes: potential drug–drug interactions” (Chinese Medicine, 2020)
Where two headings read alike, the source gives them in different places. Blank lines part the entries; values can stand above or below the molecule they belong to.

Experiments:
[1] = Urinary (renal) excretion in rats after a 30-min infusion of Kang-Ai injection; type: in vivo, Sprague–Dawley rats; settings: Kang-Ai injection 6 mL/kg iv; for CL renal: male, Sprague-Dawley, urine and plasma, rat, read-out: CLR (renal excretory clearance) (converted); for fe-U,0–12h (fraction of dose excreted into urine): rat urine 0–12 h; for fraction of dose excreted unchanged via renal plus hepatobiliary excretion (sum of fe-U and fe-B): rat urine + bile, 0–12 h
Summary of the method: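 Urine collected in metabolic cages at 0–4, 4–8, 8–12 h and bile at 0–3, 3–6, 6–9, 9–12 h after infusion start, weighed and frozen at −80 °C. Non-compartmental analysis; CLR and CLB as cumulative urinary or biliary amount divided by plasma AUC0-∞, fe-U and fe-B as cumulative amount/dose; mean ± SD (n = 3).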

CYP2A6 = target: T1, CYP2A6 (Homo sapiens, UniProt P11509); assay: Inhibition of recombinant CYP2A6 (probe coumarin); type: in vitro ADME; settings: recombinant isozyme; mean ± SD of triplicate; unit not given (IC50 classes in μM); read-out: IC50 towards CYP2A6
T1 sequence (P11509 1-494): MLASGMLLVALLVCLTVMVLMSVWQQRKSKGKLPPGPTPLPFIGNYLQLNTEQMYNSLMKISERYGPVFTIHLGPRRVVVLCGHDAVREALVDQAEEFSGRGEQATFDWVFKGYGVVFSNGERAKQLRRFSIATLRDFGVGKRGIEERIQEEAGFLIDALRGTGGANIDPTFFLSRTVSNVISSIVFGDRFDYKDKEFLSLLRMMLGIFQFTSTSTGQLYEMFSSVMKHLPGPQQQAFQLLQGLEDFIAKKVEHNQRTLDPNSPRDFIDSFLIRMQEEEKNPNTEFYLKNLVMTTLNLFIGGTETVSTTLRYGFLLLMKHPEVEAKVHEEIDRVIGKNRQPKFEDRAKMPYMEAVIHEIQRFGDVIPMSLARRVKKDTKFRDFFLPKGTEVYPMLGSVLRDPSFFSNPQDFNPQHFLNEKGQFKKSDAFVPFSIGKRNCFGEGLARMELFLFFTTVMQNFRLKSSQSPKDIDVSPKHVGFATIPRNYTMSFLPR
Procedure: (§1) In this study, phenacetin (100 μM), coumarin (100 μM), bupropion (100 μM), paclitaxel (60 μM), tolbutamide (200 μM), mephenytoin (100 μM), chlorzoxazone (200 μM) and nifedipine (40 μM) have been used as the probe substrates for CYP1A2, 2A6, 2B6, 2C8, 2C9, 2C19, 2E1 and 3A4, respectively.

CYP3A4 = CYP3A4 (Homo sapiens, UniProt P08684); assay: Inhibition of recombinant CYP3A4 (probe nifedipine); type: in vitro ADME; settings: for IC50: read-out: IC50 towards CYP3A4
Procedure: as §1

UGT1A9 = target: T2, UGT1A9 (Homo sapiens, UniProt O60656); assay: Inhibition of expressed UGT1A9 (probe propofol); type: in vitro ADME; settings: recombinant isozyme; mean ± SD of triplicate; unit not given (IC50 classes in μM); read-out: IC50 towards UGT1A9
T2 sequence (O60656 26-530): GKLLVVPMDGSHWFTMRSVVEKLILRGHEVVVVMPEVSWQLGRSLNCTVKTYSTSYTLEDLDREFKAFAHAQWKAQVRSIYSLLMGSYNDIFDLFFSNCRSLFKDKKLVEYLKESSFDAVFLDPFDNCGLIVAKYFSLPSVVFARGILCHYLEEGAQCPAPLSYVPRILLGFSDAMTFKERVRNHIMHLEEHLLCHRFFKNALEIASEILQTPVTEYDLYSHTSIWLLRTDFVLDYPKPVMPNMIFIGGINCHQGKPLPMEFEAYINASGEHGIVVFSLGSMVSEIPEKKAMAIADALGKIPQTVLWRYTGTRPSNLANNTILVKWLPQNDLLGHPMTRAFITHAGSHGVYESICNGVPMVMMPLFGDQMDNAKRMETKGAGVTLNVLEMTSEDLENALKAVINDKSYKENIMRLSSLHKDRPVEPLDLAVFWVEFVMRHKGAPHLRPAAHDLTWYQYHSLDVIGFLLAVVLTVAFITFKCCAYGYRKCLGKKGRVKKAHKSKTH
Procedure: After centrifugation (13,800g, 10 min), the supernatant (8 μL) was obtained for determination by UHPLC system.
Similarly, β-estradiol (60 μM), propofol (40 μM) and 4-MU (350 μM) were typically used as the substrates for UGT1A1, 1A9 and 2B7, respectively. After optimization of incubation conditions (Additional file 1: Fig. S2), the protein concentrations for UGT1A1, 1A9, and 2B7 were 0.125, 0.05, and 0.05 mg/mL, respectively.

[2] = Stability tests of analytes in rat plasma QC samples; type: in vitro ADME; settings: rat plasma
Procedure: […] The dilution integrity was investigated by analyzing six replicate samples with each analyte, and each analyte were diluted 10-fold with blank rat matrix. Furthermore, the diluted samples were analyzed using freshly prepared calibration curve to calculate RE and RSD, which should be no more than ± 15% as criterion.

[3] = recombinant isozyme, mean ± SD of triplicate, unit not given (IC50 classes in μM)

Sequence of CYP3A4 (P08684 whole entry): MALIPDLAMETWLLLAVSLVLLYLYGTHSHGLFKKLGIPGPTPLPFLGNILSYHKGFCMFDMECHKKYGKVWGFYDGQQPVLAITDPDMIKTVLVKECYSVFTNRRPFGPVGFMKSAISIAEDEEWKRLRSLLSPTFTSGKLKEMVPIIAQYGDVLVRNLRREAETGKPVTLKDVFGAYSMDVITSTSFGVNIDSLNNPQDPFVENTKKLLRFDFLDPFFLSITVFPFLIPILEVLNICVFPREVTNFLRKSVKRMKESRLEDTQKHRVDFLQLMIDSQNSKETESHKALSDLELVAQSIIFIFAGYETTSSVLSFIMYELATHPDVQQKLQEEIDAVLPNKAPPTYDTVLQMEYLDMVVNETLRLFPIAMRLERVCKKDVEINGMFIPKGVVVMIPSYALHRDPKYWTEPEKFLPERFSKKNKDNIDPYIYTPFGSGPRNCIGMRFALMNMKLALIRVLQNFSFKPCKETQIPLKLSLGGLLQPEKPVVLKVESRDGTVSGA

CL renal [1]: 0.767 mL/min | fe-U,0–12h (fraction of dose excreted into urine) [1]: 29.54 ± 6.03% | fraction of dose excreted unchanged via renal plus hepatobiliary excretion (sum of fe-U and fe-B) [1]: ~60% | IC50 (CYP2A6): > 100 µM | IC50 (CYP3A4; [3]): > 100 µM | IC50 (UGT1A9): > 100 µM | At -80 °C for 48 h, Mean±SD ([2]; nominal conc. 40 nM): 37.07 ± 2.41 nM | At -80 °C for 48 h, RE ([2]; nominal conc. 40 nM): -12.37% | Extracted samples at 8 °C for 18 h, Mean±SD ([2]; nominal conc. 40 nM): 39.68 ± 3.10 nM | Extracted samples at 8 °C for 18 h, RE ([2]; nominal conc. 40 nM): -8.46% | Short-term stability at room temperature for 6 h, Mean±SD ([2]; nominal conc. 40 nM): 42.26 ± 4.77 nM | Short-term stability at room temperature for 6 h, RE ([2]; nominal conc. 40 nM): 12.91% | Three freeze-thaw cycles (-80 °C ↔ 23 °C), Mean±SD ([2]; nominal conc. 40 nM): 39.18 ± 1.53 nM | Three freeze-thaw cycles (-80 °C ↔ 23 °C), RE ([2]; nominal conc. 40 nM): -5.32% | At -80 °C for 48 h, Mean±SD ([2]; nominal conc. 200 nM): 181.77 ± 7.39 nM | At -80 °C for 48 h, RE ([2]; nominal conc. 200 nM): -12.74% | Extracted samples at 8 °C for 18 h, Mean±SD ([2]; nominal conc. 200 nM): 193.91 ± 26.18 nM | Extracted samples at 8 °C for 18 h, RE ([2]; nominal conc. 200 nM): -12.50% | Short-term stability at room temperature for 6 h, Mean±SD ([2]; nominal conc. 200 nM): 175.60 ± 2.61 nM | Short-term stability at room temperature for 6 h, RE ([2]; nominal conc. 200 nM): -13.13% | Three freeze-thaw cycles (-80 °C ↔ 23 °C), Mean±SD ([2]; nominal conc. 200 nM): 205.17 ± 19.51 nM | Three freeze-thaw cycles (-80 °C ↔ 23 °C), RE ([2]; nominal conc. 200 nM): 11.83% | At -80 °C for 48 h, Mean±SD ([2]; nominal conc. 800 nM): 836.79 ± 51.65 nM | At -80 °C for 48 h, RE ([2]; nominal conc. 800 nM): 10.56% | Extracted samples at 8 °C for 18 h, Mean±SD ([2]; nominal conc. 800 nM): 827.44 ± 80.86 nM | Extracted samples at 8 °C for 18 h, RE ([2]; nominal conc. 800 nM): 12.75% | Short-term stability at room temperature for 6 h, Mean±SD ([2]; nominal conc. 800 nM): 724.25 ± 14.79 nM | Short-term stability at room temperature for 6 h, RE ([2]; nominal conc. 800 nM): -11.32% | Three freeze-thaw cycles (-80 °C ↔ 23 °C), Mean±SD ([2]; nominal conc. 800 nM): 818.48 ± 84.93 nM | Three freeze-thaw cycles (-80 °C ↔ 23 °C), RE ([2]; nominal conc. 800 nM): 12.80%
Structure (SMILES): CC(C)=CCC[C@](C)(O[C@@H]1O[C@H](CO)[C@@H](O)[C@H](O)[C@H]1O)[C@H]1CC[C@]2(C)[C@@H]1[C@H](O)C[C@@H]1[C@@]3(C)CC[C@H](O)C(C)(C)[C@@H]3[C@@H](O[C@@H]3O[C@H](CO)[C@@H](O)[C@H](O)[C@H]3O[C@@H]3O[C@@H](C)[C@H](O)[C@@H](O)[C@H]3O)C[C@]12C [Compound C9, Ginsenoside Re]

CL renal [1]: 0.0185 mL/min | fe-U,0–12h (fraction of dose excreted into urine) [1]: 19.00 ± 5.33% | fraction of dose excreted unchanged via renal plus hepatobiliary excretion (sum of fe-U and fe-B) [1]: about 25% | IC50 (CYP2A6): > 100 µM | inhibition type (smallest AIC and SC) (CYP3A4; CYP3A4): Noncompetitive inhibition | Ki (CYP3A4; CYP3A4, competitive model): 8.7 ± 2.3 µM | Ki (CYP3A4; CYP3A4, mixed-type model): 44.2 ± 16.2 µM | α (CYP3A4; CYP3A4, mixed-type model): 0.6 ± 0.3 | Ki (CYP3A4; CYP3A4, noncompetitive model): 32.8 ± 2.2 µM | Cmax/Ki ([I]/Ki) (CYP3A4; CYP3A4, selected model, rat plasma Cmax): 0.02 | IC50 (CYP3A4; nifedipine 40 μM): 41 µM | IC50 (CYP3A4; [3]): 41 ± 25.8 µM | IC50 (UGT1A9): > 100 µM | At -80 °C for 48 h, Mean±SD ([2]; nominal conc. 20 nM): 20.86 ± 2.70 nM | At -80 °C for 48 h, RE ([2]; nominal conc. 20 nM): 13.40% | Extracted samples at 8 °C for 18 h, Mean±SD ([2]; nominal conc. 20 nM): 21.52 ± 1.04 nM | Extracted samples at 8 °C for 18 h, RE ([2]; nominal conc. 20 nM): 11.29% | Short-term stability at room temperature for 6 h, Mean±SD ([2]; nominal conc. 20 nM): 20.41 ± 1.88 nM | Short-term stability at room temperature for 6 h, RE ([2]; nominal conc. 20 nM): -8.78% | Three freeze-thaw cycles (-80 °C ↔ 23 °C), Mean±SD ([2]; nominal conc. 20 nM): 21.38 ± 0.85 nM | Three freeze-thaw cycles (-80 °C ↔ 23 °C), RE ([2]; nominal conc. 20 nM): 11.74% | At -80 °C for 48 h, Mean±SD ([2]; nominal conc. 100 nM): 94.76 ± 3.45 nM | At -80 °C for 48 h, RE ([2]; nominal conc. 100 nM): -9.18% | Extracted samples at 8 °C for 18 h, Mean±SD ([2]; nominal conc. 100 nM): 93.92 ± 4.07 nM | Extracted samples at 8 °C for 18 h, RE ([2]; nominal conc. 100 nM): -9.39% | Short-term stability at room temperature for 6 h, Mean±SD ([2]; nominal conc. 100 nM): 96.61 ± 5.06 nM | Short-term stability at room temperature for 6 h, RE ([2]; nominal conc. 100 nM): -8.93% | Three freeze-thaw cycles (-80 °C ↔ 23 °C), Mean±SD ([2]; nominal conc. 100 nM): 101.66 ± 11.99 nM | Three freeze-thaw cycles (-80 °C ↔ 23 °C), RE ([2]; nominal conc. 100 nM): 13.24% | At -80 °C for 48 h, Mean±SD ([2]; nominal conc. 400 nM): 419.98 ± 19.52 nM | At -80 °C for 48 h, RE ([2]; nominal conc. 400 nM): 10.54% | Extracted samples at 8 °C for 18 h, Mean±SD ([2]; nominal conc. 400 nM): 411.97 ± 35.80 nM | Extracted samples at 8 °C for 18 h, RE ([2]; nominal conc. 400 nM): 9.32% | Short-term stability at room temperature for 6 h, Mean±SD ([2]; nominal conc. 400 nM): 362.78 ± 5.91 nM | Short-term stability at room temperature for 6 h, RE ([2]; nominal conc. 400 nM): -10.80% | Three freeze-thaw cycles (-80 °C ↔ 23 °C), Mean±SD ([2]; nominal conc. 400 nM): 397.28 ± 35.89 nM | Three freeze-thaw cycles (-80 °C ↔ 23 °C), RE ([2]; nominal conc. 400 nM): 9.66%
Structure (SMILES): CC(C)=CCC[C@](C)(O[C@@H]1O[C@H](CO)[C@@H](O)[C@H](O)[C@H]1O)[C@H]1CC[C@]2(C)[C@@H]1[C@H](O)C[C@@H]1[C@@]3(C)CC[C@H](O[C@@H]4O[C@H](CO)[C@@H](O)[C@H](O)[C@H]4O[C@@H]4O[C@H](CO)[C@@H](O)[C@H](O)[C@H]4O)C(C)(C)[C@@H]3CC[C@]12C [Compound D2, Ginsenoside Rd]
